Results reported in the NIST ThermoML archive (doi:10.1021/je700373r).

Test: xn = mol fraction of the nth substance listed
Conditions: Fluid (supercritical or subcritical phases), Vibrating tube method

CC1=C(/C=C/C(C)=C/C=C/C(C)=C/C=C/C=C(C)/C=C/C=C(C)/C=C/C2=C(C)CCCC2(C)C)C(C)(C)CCC1 [β-carotene] + O=C=O
mass density [kg/m3]
Conditions | x1 = 1.5e-06 | x1 = 2.2e-06 | x1 = 2.9e-06 | x1 = 4.3e-06 | x1 = 4.8e-06 | x1 = 5.5e-06 | x1 = 6.5e-06
308.15 K, 10000 kPa | 717.5 | 717.7 | 717.9 | 717.6 | 717.8 | 718.3 | 717.8
308.15 K, 15000 kPa | 816.3 | 816.4 | 816.5 | 816.4 | 816.4 | 816.7 | 816.4
308.15 K, 20000 kPa | 866.3 | 866.3 | 866.3 | 866.4 | 866.4 | 866.5 | 866.4
308.15 K, 30000 kPa | 929.1 | 929.1 | 929.1 | 929.1 | 929.3 | 929.2 | 929.1
308.15 K, 40000 kPa | 971.8 | 971.9 | 971.9 | 971.9 | 972 | 972 | 971.9
313.15 K, 10000 kPa | 636.7 | 637.3 | 637.2 | 637.2 | 637.7 | 637.8 | 637.3
313.15 K, 15000 kPa | 781.5 | 781.6 | 781.6 | 781.6 | 781.8 | 781.9 | 781.6
313.15 K, 20000 kPa | 840.4 | 840.4 | 840.4 | 840.4 | 840.6 | 840.7 | 840.4
313.15 K, 30000 kPa | 909.9 | 909.9 | 909.9 | 909.9 | 910 | 910.1 | 909.9
313.15 K, 40000 kPa | 955.7 | 955.7 | 955.7 | 955.7 | 955.8 | 955.9 | 955.7
323.15 K, 10000 kPa | 398.3 | 397.9 | 398.9 | 398.2 | 398.4 | 398.5 | 398.2
323.15 K, 15000 kPa | 702 | 701.8 | 702.1 | 702 | 702.1 | 702.2 | 702
323.15 K, 20000 kPa | 785 | 784.9 | 785.1 | 785 | 785.2 | 785.3 | 785
323.15 K, 30000 kPa | 870.5 | 870.5 | 870.5 | 870.5 | 870.6 | 870.7 | 870.5
323.15 K, 40000 kPa | 922.9 | 923 | 923 | 923 | 923 | 923.1 | 923
333.15 K, 10000 kPa | 296.5 | 297.2 | 296.7 | 296.6 | 296.9 | 297 | 296.6
333.15 K, 15000 kPa | 607.3 | 607.7 | 607.7 | 607.4 | 607.7 | 607.8 | 607.4
333.15 K, 20000 kPa | 724.5 | 724.7 | 724.7 | 724.7 | 724.7 | 725 | 724.6
333.15 K, 30000 kPa | 829.7 | 829.7 | 829.7 | 829.7 | 829.8 | 829.9 | 829.7
333.15 K, 40000 kPa | 889.8 | 889.8 | 889.9 | 889.9 | 890 | 890 | 889.9
